Entries after “also recorded” stand apart in the source; their conditions may differ.
What was measured:
dog faecal homogenates = test: In vitro conversion of amphetamine prodrugs to amphetamine in dog faecal homogenates; assay type: in vitro ADME; conditions: dog faecal homogenate, prodrug 10 μM, anaerobic, 37° C.; for Amphetamine C0: time 0; for Amphetamine C6: 6 hours; for Amphetamine C24: 24 hours
Description: (§1) Frozen samples were stored at −70° C. prior to analysis for the parent drug and pro-drug using a qualified LC-MS-MS assay.

human faecal homogenates = test: In vitro conversion of amphetamine prodrugs to amphetamine in human faecal homogenates; assay type: in vitro ADME; conditions: for Amphetamine C0 / Amphetamine C6 / Amphetamine C24: human faecal homogenate, prodrug 10 μM, anaerobic, 37° C.; for Amphetamine C0: time 0; for conversion to the active by the microflora: summary of Table 4 incubations (dog, monkey, human faecal homogenates, rat caecal contents); for conversion to the active, human compared to dog faecal homogenates: human vs dog faecal homogenates; for Amphetamine C6: 6 hours; for Amphetamine C24: 24 hours
Description: as §1

[1] = system: faecal homogenates prepared from three subjects; test: Interindividual variability in amphetamine generation in human fecal homogenates (Example 25); conditions: 100 μM, anaerobic, 37° C., up to 6 hours
[2] = Pharmacokinetics of prodrug and amphetamine after oral dosing to male dogs (Example 20); conditions: for AUC / Tmax: male, dog, in vivo, po, 0.5 mg; for absorption of prodrug in the upper gastrointestinal tract: male dogs, oral gavage of prodrug
[3] = Pharmacokinetics of amphetamine after oral dosing of d-amphetamine or Compound 1, or intranasal dosing of Compound 1, to male dogs (Example 23)
[4] = system: monkey faecal homogenates; test: In vitro conversion of amphetamine prodrugs to amphetamine in monkey faecal homogenates; assay type: in vitro ADME; conditions: monkey faecal homogenate, prodrug 10 μM, anaerobic, 37° C., time 0
Description: as §1

[5] = Pharmacokinetics of prodrug and amphetamine after oral dosing to male cynomolgus monkeys (Example 21); conditions: cynomolgus monkey
[6] = Pharmacokinetics of prodrug and amphetamine after intravenous dosing to male cynomolgus monkeys (Example 22)

## C[C@@H](Cc1ccccc1)NC(=O)[C@@H](C)O[C@H]1[C@H](O)[C@@H](CO)OC(O)[C@@H]1N (mixture of isomers) [Compound 4, (2R)-2-(((3R,4R,5S,6R)-3-amino-2,5-dihydroxy-6-(hydroxymethyl)tetrahydro-2H-pyran-4-yl)oxy)-N-((S)-1-phenylpropan-2-yl)propanamide]
Dog faecal homogenates
  Amphetamine C0: BLQ
Human faecal homogenates
  Amphetamine C0: BLQ

## CC(=O)N[C@H]1C(O)O[C@H](CO)[C@H](O)C1O[C@H](C)C(=O)N[C@@H](C)Cc1ccccc1 (stereo partly drawn) [Compound 1, (2R)-2-(((3R,4R,5R,6R)-3-acetamido-2,5-dihydroxy-6-(hydroxymethyl)tetrahydro-2H-pyran-4-yl)oxy)-N-((S)-1-phenylpropan-2-yl)propanamide]
[1]
  variability of amphetamine generation between subjects: relatively modest variability
[2]
  AUC: 354 ng·h/mL
  Tmax: 1 h
[3]; 4 mg intranasal vs 4 mg po
  exposure to amphetamine, intranasal compared with oral administration of the prodrug: less than that observed following oral administration of the prodrug
[3]; intranasal
  onset of amphetamine appearance in the systemic circulation: did not enhance the onset
[4]
  Amphetamine C0: BLQ
[5]; in vivo, 0.5 mg
  AUC: 187 ng·h/mL
  Tmax: 1.1 h
Human faecal homogenates
  conversion to the active by the microflora: efficient conversion
[6]
  conversion to the active amphetamine following systemic exposure: no significant quantities
[6]; 0.2 mg d-amphetamine free base equivalents/kg
  amphetamine levels where detected (one time point between 4 and 8 hours): near the limit of quantification

## C[C@@H](Cc1ccccc1)NC(=O)[C@H](O)[C@@H](O)[C@H](O[C@@H]1O[C@H](CO)[C@H](O)[C@H](O)[C@H]1O)[C@H](O)CO [Compound 5, (2R,3R,4R,5R)-2,3,5,6-tetrahydroxy-N-((S)-1-phenylpropan-2-yl)-4-(((2S,3R,4S,5R,6R)-3,4,5-trihydroxy-6-(hydroxymethyl)tetrahydro-2H-pyran-2-yl)oxy)hexanamide]
Human faecal homogenates
  conversion to the active, human compared to dog faecal homogenates: greater activity in human in vitro studies; also recorded: higher in human compared to dog faecal homogenates
  conversion to the active by the microflora: efficient conversion

## C[C@@H](Cc1ccccc1)NC(=O)[C@H](O)[C@@H](O)[C@H](O)[C@H](O)CO [Compound 6, (2R,3S,4R,5R)-2,3,4,5,6-pentahydroxy-N-((S)-1-phenylpropan-2-yl)hexanamide]
[2]
  absorption of prodrug in the upper gastrointestinal tract: high absorption
Dog faecal homogenates
  Amphetamine C0: BLQ
Human faecal homogenates
  Amphetamine C0: BLQ

## C[C@@H](Cc1ccccc1)NC(=O)[C@@H](C)OC(=O)N[C@H]1C(O)O[C@H](CO)[C@@H](O)[C@@H]1O (stereo partly drawn) [Compound 8, (1R)-1-{[(2S)-1-Phenylpropan-2-yl]carbamoyl}ethyl N-[(3R,4R,5S,6R)-2,4,5-trihydroxy-6-(hydroxymethyl)oxan-3-yl]carbamate]
Dog faecal homogenates
  Amphetamine C6: BLQ
  Amphetamine C24: BLQ
  Amphetamine C0: BLQ
Human faecal homogenates
  Amphetamine C6: BLQ
  Amphetamine C24: BLQ
  Amphetamine C0: BLQ

## CCO[C@H]1O[C@H](CO)[C@@H](O)[C@H](O)[C@H]1NNC(C)Cc1ccccc1 (stereo partly drawn) [Compound 9, (2R,3S,4R,5R,6S)-6-Ethoxy-2-(hydroxymethyl)-5-[2-(1-phenylpropan-2-yl)hydrazin-1-yl]oxane-3,4-diol]
[2]
  absorption of prodrug in the upper gastrointestinal tract: high absorption

## CO[C@H]1O[C@H](CO)[C@@H](O)[C@H](O)[C@H]1NNC(C)Cc1ccccc1 (stereo partly drawn) [Compound 10, (2R,3S,4R,5R,6S)-6-Methoxy-2-(hydroxymethyl)-5-[2-(1-phenylpropan-2-yl)hydrazin-1-yl]oxane-3,4-diol]
[2]
  absorption of prodrug in the upper gastrointestinal tract: high absorption

## CC(=O)N[C@@H]1CO[C@H](CO)[C@@H](O)[C@@H]1O[C@H](C)C(=O)N[C@@H](C)Cc1ccccc1 [Compound 11, (R)-2-(((2R,3S,4R,5R)-5-Acetamido-3-hydroxy-2-(hydroxymethyl)tetrahydro-2H-pyran-4-yl)oxy)-N-((S)-1-phenylpropan-2-yl)propanamide]
Dog faecal homogenates
  Amphetamine C6: BLQ
  Amphetamine C24: BLQ
  Amphetamine C0: BLQ
Human faecal homogenates
  Amphetamine C6: BLQ
  Amphetamine C24: BLQ
  Amphetamine C0: BLQ

## C[C@@H](Cc1ccccc1)NC(=O)[C@@H](C)O[C@H]1[C@H](O)[C@@H](CO)OC[C@H]1N [Compound 12, (R)-2-(((2R,3S,4R,5R)-5-Amino-3-hydroxy-2-(hydroxymethyl)tetrahydro-2H-pyran-4-yl)oxy)-N-((S)-1-phenylpropan-2-yl)propanamide]
Dog faecal homogenates
  Amphetamine C6: BLQ
  Amphetamine C24: BLQ
  Amphetamine C0: BLQ
Human faecal homogenates
  Amphetamine C6: BLQ
  Amphetamine C24: BLQ
  Amphetamine C0: BLQ

## CC(=O)N[C@@H](C=O)[C@@H](O[C@H](C)C(=O)N[C@H](C)Cc1ccccc1)[C@H](O)[C@H](O)CO [Compound 13, (2R)-2-{[(2R,3R,4R,5R)-2-Acetamido-4,5,6-trihydroxy-1-oxohexan-3-yl]oxy}-N-[(2R)-1-phenylpropan-2-yl]propanamide]
[2]
  AUC: 564 ng·h/mL
  Tmax: 0.75 h
Human faecal homogenates
  Amphetamine C0: BLQ
  conversion to the active by the microflora: efficient conversion

## CC(=O)N[C@H]1C(O)O[C@H](CO)[C@@H](O)[C@@H]1O[C@@H](C)C(=O)N[C@@H](C)Cc1ccccc1 (stereo partly drawn) [Compound 14, (2S)-2-(((3R,4R,5S,6R)-3-Acetamido-2,5-dihydroxy-6-(hydroxymethyl)tetrahydro-2H-pyran-4-yl)oxy)-N-((S)-1-phenylpropan-2-yl)propanamide]
Dog faecal homogenates
  Amphetamine C0: BLQ
Human faecal homogenates
  Amphetamine C6: BLQ
  Amphetamine C24: BLQ
  Amphetamine C0: BLQ

## CC(=O)N[C@H]1C(O)O[C@H](CO)[C@@H](O)[C@@H]1OCC(=O)N[C@@H](C)Cc1ccccc1 (stereo partly drawn) [Compound 15, 2-(((3R,4R,5S,6R)-3-acetamido-2,5-dihydroxy-6-(hydroxymethyl)tetrahydro-2H-pyran-4-yl)oxy)-N-((S)-1-phenylpropan-2-yl)acetamide]
Dog faecal homogenates
  Amphetamine C0: BLQ
Human faecal homogenates
  Amphetamine C0: BLQ

## CCC(=O)N[C@H]1C(O)O[C@H](CO)[C@@H](O)[C@@H]1O[C@H](C)C(=O)N[C@@H](C)Cc1ccccc1 (stereo partly drawn) [Compound 16, (2R)-2-[(3R,4R,5S)-2,5-dihydroxy-6-(hydroxymethyl)-3-(propanoylamino)tetrahydropyran-4-yl]oxy-N-[(1S)-1-methyl-2-phenyl-ethyl]propanamide]
[2]
  AUC: 273 ng·h/mL
  Tmax: 0.5 h
Dog faecal homogenates
  Amphetamine C0: BLQ
Human faecal homogenates
  Amphetamine C0: BLQ
  conversion to the active by the microflora: efficient conversion

## CC(=O)N[C@H]1[C@@H]2OC[C@@H](O2)[C@@H](O)[C@@H]1O[C@H](C)C(=O)N[C@H](C)Cc1ccccc1 [Compound 17, (2R)-2-[[(2S,3R,4R)-4-acetamido-2-hydroxy-6,8-dioxabicyclo[3.2.1]octan-3-yl]oxy]-N-[(1R)-1-methyl-2-phenyl-ethyl]propanamide]
[2]
  AUC: 213 ng·h/mL
  Tmax: 0.5 h
Dog faecal homogenates
  Amphetamine C0: BLQ
Human faecal homogenates
  Amphetamine C0: BLQ
  conversion to the active, human compared to dog faecal homogenates: greater activity in human in vitro studies; also recorded: higher in human compared to dog faecal homogenates
  conversion to the active by the microflora: efficient conversion

## CC(C)C(=O)N[C@@H](C=O)[C@@H](O[C@H](C)C(=O)N[C@@H](C)Cc1ccccc1)[C@H](O)[C@H](O)CO [Compound 18, N-((2R,3R,4R,5R)-4,5,6-trihydroxy-1-oxo-3-(((R)-1-oxo-1-(((S)-1-phenylpropan-2-yl)amino)propan-2-yl)oxy)hexan-2-yl)isobutyramide]
Dog faecal homogenates
  Amphetamine C0: BLQ
Human faecal homogenates
  Amphetamine C0: BLQ

## CCCCCCCC(=O)N[C@@H](C=O)[C@@H](O[C@H](C)C(=O)N[C@@H](C)Cc1ccccc1)[C@H](O)[C@H](O)CO [Compound 19, N-((2R,3R,4R,5R)-4,5,6-trihydroxy-1-oxo-3-(((R)-1-oxo-1-(((S)-1-phenylpropan-2-yl)amino)propan-2-yl)oxy)hexan-2-yl)octanamide]
Dog faecal homogenates
  Amphetamine C0: BLQ
Human faecal homogenates
  Amphetamine C6: BLQ
  Amphetamine C0: BLQ

## C[C@H](N)Cc1ccccc1 [d-Amphetamine, d-amphetamine]
[5]; in vivo, 1 mg/kg
  Tmax: ≤ 1 h
[5]; plasma, 1 mg/kg
  AUC: 4440 ng·h/mL
  Tmax: 2.4 h
